How the values were obtained:
hSTING-R232 = hSTING-R232 (Homo sapiens (Human), UniProt Q86WV6, H232R); assay: STING differential scanning fluorimetry (DSF) assay, WT human STING; conditions: WT (R232) human STING aa140-379, net shift in melting temperature
hSTING-WT = hSTING-WT (Homo sapiens (Human), UniProt Q86WV6, H232R); assay: Radiometric filtration binding competition assay, hSTING-WT
Protocol: (§1) A radiometric filtration binding competition assay was performed to quantify the binding affinity of compounds of the present application for the human or mouse STING protein, or associated HAQ human isoform. […] The resulting dose response was fit by non-linear regression to determine an IC50 value, from which a Ki value for each compound was extrapolated.
(§2) The resulting complexes were then filtered, dried, and scintillation fluid was added and the remaining radio signal was measured to determine the degree of compound ligand inhibition. This assay format was optimized for both the WT and HAQ isoforms of the human protein and the mouse orthologue protein.
(§3) Probe Concentration: Minimum concentration that achieved max assay window • g. Assay Format: Scintillation Proximity Bead or Filtration Binding Plate • h. […] Assay incubation times for successive incubation steps
(§4) WT-hSWAT: WT_FBA_HIS-SUMO-hSWAT IC50 (μM) (“WT”=Wild-type); HAQ-hSWAT: HAQ_FBA_HIS-SUMO-hSWAT IC50 (μM) (“HAQ”=human HAQ allele of STING protein); and WT-mSWAT: MOUSE_FBA_HIS-SUMO-mnSWAT IC50 (μM) which is the mouse isoform of STING protein.

mSTING-R232 = mSTING-R232 (Mus musculus, UniProt Q3TBT3); assay: STING differential scanning fluorimetry (DSF) assay, mouse STING; conditions: net shift in melting temperature
hSTING-HAQ [1] = biological target: T1, hSTING-HAQ (Homo sapiens (Human), UniProt Q86WV6, G230A/H232R/R293Q); assay: STING differential scanning fluorimetry (DSF) assay, HAQ human STING; conditions: HAQ human STING aa140-379, net shift in melting temperature
Protocol: A STING DSF assay was performed to determine protein thermostability shift in response to small molecule ligand binding. A STING thermostability shift assay based on differential scanning fluorimetry was used to measure (1) the net shift in melting temperature (ΔTm)between the apo and ligand-bound states of the STING protein and (2) the concentration of the thermal denaturation transition (EC50) as a surrogate measure of binding affinity (K). […] Protein in assay buffer was transferred to a 384 well plate and incubated with the hydrophobic fluorescent dye SYBR Orange. A temperature ramp was applied to the plate and the resulting dye fluorescence was plotted as a function of temperature. The first derivative of this function (dF/dT) was then used to extrapolate the melting temperature of the protein at various concentrations of compound and determine the thermal denaturation profile of a protein/compound complex.
• 1. Protein construct (affinity tag removal vs SUMO-fusion construct) • 2. Protein concentration • 3. Dye concentration • 4. Buffer • 5. Thermal ramp velocity • 6. DMSO tolerance • 7. Compound titration parameters • 8. […] 5 μM purified Target STING Protein • 3. 8 μM Sypro Orange Dye • 4. Buffer: 100 mM NaCl, 30 mM HEPES, pH 7.5 • 5. Thermal Ramp: 0.5° C./min • 6. <1% DMSO • 7. 11 point, 2 fold dilution, duplicate, 300 μM high concentrations • 8.

hSTING-HAQ [2] = biological target: T1, hSTING-HAQ; assay: Radiometric filtration binding competition assay, hSTING-HAQ
Protocol: as §1, §2, §3, §4

mSTING = mSTING (Mus musculus, UniProt Q3TBT3); assay: Radiometric filtration binding competition assay, mSTING
STING protein = STING protein (Homo sapiens (Human), UniProt Q86WV6, H232R); assay: Cell based reporter assay of IRF activation (IRF-luciferase), THP1-dual-KI R232; conditions: read-out: THP1-dual-KI R232_IRF(Luciferase)_Activity Maximum measured (%)
hSTING-CTD = hSTING-CTD (Homo sapiens (Human), UniProt Q86WV6); assay: Human STING protein FP competition concentration response assay; assay type: binding
In short: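 Fluorescence polarization competition: recombinant hSTING-CTD (10 uM final) with 30 nM fluorescein-labeled c-di-GMP probe and titrated compound (2-fold, 14 points; 3.35% DMSO) in PBS, 10-20 min at r.t. Fluorescence anisotropy read; IC50 from 4-parameter logistic fit.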

Sequence of hSTING-WT (Q86WV6 140-379 H232R): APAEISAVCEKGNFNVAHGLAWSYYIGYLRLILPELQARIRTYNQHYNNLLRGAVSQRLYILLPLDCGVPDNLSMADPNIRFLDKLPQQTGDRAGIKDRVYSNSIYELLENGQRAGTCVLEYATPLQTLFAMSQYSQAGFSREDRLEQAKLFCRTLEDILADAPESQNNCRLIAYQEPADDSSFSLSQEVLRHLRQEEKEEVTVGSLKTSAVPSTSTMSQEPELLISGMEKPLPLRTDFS
Sequence of hSTING-R232 (Q86WV6 140-379 H232R): as above
Sequence of STING protein (Q86WV6 whole entry H232R): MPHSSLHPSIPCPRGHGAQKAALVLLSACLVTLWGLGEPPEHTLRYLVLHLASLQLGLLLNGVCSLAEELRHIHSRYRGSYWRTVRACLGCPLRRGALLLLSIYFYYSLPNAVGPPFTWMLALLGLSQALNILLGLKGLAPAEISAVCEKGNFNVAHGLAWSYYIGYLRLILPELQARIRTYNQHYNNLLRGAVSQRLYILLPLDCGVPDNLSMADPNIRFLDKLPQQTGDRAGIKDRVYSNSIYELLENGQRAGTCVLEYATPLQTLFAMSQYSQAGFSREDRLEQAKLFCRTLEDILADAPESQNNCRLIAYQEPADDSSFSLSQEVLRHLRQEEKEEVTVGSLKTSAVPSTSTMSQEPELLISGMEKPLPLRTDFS
T1 sequence (Q86WV6 140-379 G230A/H232R/R293Q): as the sequence (Q86WV6 140-379 H232R) above, with G91A, R154Q counted along it
Sequence of hSTING-CTD (Q86WV6 135-379): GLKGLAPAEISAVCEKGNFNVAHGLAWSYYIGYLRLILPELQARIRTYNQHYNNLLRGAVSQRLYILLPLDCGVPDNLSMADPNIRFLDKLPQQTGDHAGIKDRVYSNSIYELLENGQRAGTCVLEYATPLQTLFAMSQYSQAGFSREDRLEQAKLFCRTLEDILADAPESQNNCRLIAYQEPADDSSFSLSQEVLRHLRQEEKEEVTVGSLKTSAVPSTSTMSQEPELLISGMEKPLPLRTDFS

Row | SMILES | WT_DSF_hSWAT Tm Shift (° C.) (hSTING-R232) | IC50 (hSTING-WT) [µM] | MOUSE DSF_6xHIS-SUMO Tm Shift (° C.) (mSTING-R232) | HAQ_DSF_hSWAT Tm Shift (° C.) (hSTING-HAQ [1]) | IC50 (hSTING-HAQ [2]) [µM] | IC50 (mSTING) [µM] | Emax (STING protein) [%] | IC50 (hSTING-CTD) [µM]
1 | CC(C)c1ccc2c(=O)c3ccc(Cl)c(Br)c3n(CC(=O)O)c2c1 [Compound 111] | D (“D” > 7° C.) | 20 to 100 | C (“C” = 5-15° C.) | D (“D” > 7° C.) | 100 to 300 | 20 to 100 | > 50 | < 100
2 | CC1(C)CC=C(c2ccc3c(=O)c4ccc(Cl)c(Cl)c4n(CC(=O)O)c3c2)CC1 [Compound 159] | A (“A” < 0° C.) | 20 to 100 | C (“C” = 5-15° C.) | A (“A” < 0° C.) | 20 to 100 | < 20 | 5 to 25 | 
3 | O=C(O)Cn1c2cc(Nc3cnccn3)ccc2c(=O)c2ccc(Cl)c(Cl)c21 [Compound 217] | D (“D” > 7° C.) | 20 to 100 |  | D (“D” > 7° C.) | 100 to 300 | < 20 | > 50 | 
4 | Cc1cccc(-c2ccc3c(=O)c4ccc(Cl)c(Cl)c4n(CC(=O)O)c3c2)c1 [Compound 151] | B (“B” = 0-2° C.) | 20 to 100 | C (“C” = 5-15° C.) | C (“C” = 2-7° C,) | 20 to 100 | < 20 | < 5 | 
5 | CC(C)(C)c1ccc2c(=O)c3ccc(Cl)c(Br)c3n(CC(=O)O)c2c1 [Compound 176] | D (“D” > 7° C.) | 20 to 100 | D (“D” > 15° C.) | D (“D” > 7° C.) | 20 to 100 | < 20 | > 50 | 

Next, values leading:

Row | WT_DSF_hSWAT Tm Shift (° C.) (hSTING-R232) | IC50 (hSTING-WT) [µM] | MOUSE DSF_6xHIS-SUMO Tm Shift (° C.) (mSTING-R232) | HAQ_DSF_hSWAT Tm Shift (° C.) (hSTING-HAQ [1]) | IC50 (hSTING-HAQ [2]) [µM] | IC50 (mSTING) [µM] | Emax (STING protein) [%] | IC50 (hSTING-CTD) [µM] | SMILES
6 | D (“D” > 7° C.) | < 20 | D (“D” > 15° C.) | D (“D” > 7° C.) | 20 to 100 | < 20 | > 50 |  | O=C(O)Cn1c2cc(NC3CCCCC3)ccc2c(=O)c2ccc(Cl)c(Br)c21 [Compound 110]
7 | C (“C” = 2-7° C,) | 20 to 100 | D (“D” > 15° C.) | C (“C” = 2-7° C,) | 100 to 300 | < 20 | 25 to 50 | < 100 | O=C(O)Cn1c2cc(C3CCCCC3)ccc2c(=O)c2ccc(Cl)c(Cl)c21 [Compound 115]
8 | D (“D” > 7° C.) | < 20 |  | D (“D” > 7° C.) | < 20 | < 20 | > 50 |  | CSc1c(Cl)ccc2c(=O)c3ccc(C(C)(C)C)cc3n(CC(=O)O)c12 [Compound 215]
9 |  | < 20 | D (“D” > 15° C.) | D (“D” > 7° C.) | 20 to 100 | < 20 | > 50 |  | O=C(O)Cn1c2cc(Nc3ccc(F)cc3)ccc2c(=O)c2ccc(Cl)c(Cl)c21 [Compound 218]
10 | D (“D” > 7° C.) | < 20 | D (“D” > 15° C.) | D (“D” > 7° C.) | 20 to 100 | < 20 | > 50 |  | O=C(O)Cn1c2cc(C3CCCCC3)ccc2c(=O)c2ccc(Cl)c(Br)c21 [Compound 147]
11 | D (“D” > 7° C.) | < 20 | D (“D” > 15° C.) | D (“D” > 7° C.) | 20 to 100 | < 20 | > 50 |  | COc1c(Cl)ccc2c(=O)c3ccc(Nc4ccccc4)cc3n(CC(=O)O)c12 [Compound 207]

From patent publication US11414387B2, “Oxoacridinyl acetic acid derivatives and methods of use” (Stingthera, Inc., priority 2017, dated 2022)
